Test results from ChEMBL document CHEMBL6092168, “Identification of novel indolinone derivatives as CTSC inhibitors to treat inflammatory bowel disease by modulating inflammatory factors” (Eur J Med Chem, 2024).
pIC50: −log10 of the molar value. Calls of active or inactive are those of the source. The rule behind the calls is not given here.

How the values were obtained:
RAW264.7 [1] = assay: Anti-inflammatory activity in mouse RAW264.7 cells assessed as inhibition of LPS-induced IL-1beta production at 5 uM preincubated for 1 hr followed by LPS addition and measured after 24 hrs by ELISA relative to control; type: functional
RAW264.7 [2] = assay: Anti-inflammatory activity in mouse RAW264.7 cells assessed as inhibition of LPS-induced NO production preincubated for 1 hr followed by LPS addition and measured after 24 hrs by Griess reagent based assay; type: functional, cell-based
Dipeptidyl peptidase 1 = Dipeptidyl peptidase 1 (Homo sapiens, UniProt P53634); assay: Inhibition of human recombinant Cathepsin C using Gly-Phe-AFC as substrate preincubated for 3 hrs followed by substrate addition and measured after 1 hr by fluorescence based multifunctional microplate reader analysis
Chain of Dipeptidyl peptidase 1 (P53634 25-134 limits assumed): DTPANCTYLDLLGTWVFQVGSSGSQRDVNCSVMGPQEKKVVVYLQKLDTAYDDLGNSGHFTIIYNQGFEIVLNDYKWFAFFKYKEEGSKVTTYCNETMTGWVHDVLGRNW
Chain of Dipeptidyl peptidase 1 (P53634 231-394 limits assumed): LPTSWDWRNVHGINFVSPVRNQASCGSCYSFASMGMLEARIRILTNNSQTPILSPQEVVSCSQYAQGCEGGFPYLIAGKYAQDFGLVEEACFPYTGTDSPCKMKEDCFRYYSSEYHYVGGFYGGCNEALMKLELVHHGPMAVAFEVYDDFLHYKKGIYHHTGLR
Chain of Dipeptidyl peptidase 1 (P53634 395-463 limits assumed): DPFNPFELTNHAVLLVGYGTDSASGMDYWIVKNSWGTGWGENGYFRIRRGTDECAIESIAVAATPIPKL

RAW264.7 [3] = assay: Anti-inflammatory activity in mouse RAW264.7 cells assessed as inhibition of LPS-induced TNF-alpha production at 5 uM preincubated for 1 hr followed by LPS addition and measured after 24 hrs by ELISA relative to control; type: functional

Compound | pIC50 (RAW264.7 [2]) | pIC50 (Dipeptidyl peptidase 1) | Activity (RAW264.7 [1]; time 25.0 hrs) | Activity (RAW264.7 [3]; time 25.0 hrs) | Activity (RAW264.7 [1]; time 25 hrs) | Activity (RAW264.7 [3]; time 25 hrs)
O=C(Nc1cccc(C(F)(F)F)c1)c1cccc(-c2ccc(CN3CCOCC3)cc2)c1 | < 4.30 | < 6.00 | inactive | inactive | – | –
Nc1ccc(NC(=O)c2cccc(-c3ccc(CN4CCOCC4)cc3)c2)cc1 | < 4.30 | < 6.00 | inactive | inactive | – | –
CC(=O)Nc1cccc(NC(=O)c2cccc(-c3ccc(CN4CCOCC4)cc3)c2)c1 | < 4.30 | < 6.00 | inactive | inactive | – | –
O=C(Nc1ccccc1)c1cccc(-c2ccc(CN3CCOCC3)cc2)c1 | < 4.30 | < 6.00 | inactive | inactive | – | –
CNC(=O)c1ccccc1NC(=O)c1cccc(-c2ccc(CN3CCOCC3)cc2)c1 | < 4.30 | < 6.00 | inactive | inactive | – | –
O=C(Nc1ccc(Cl)cc1)c1cccc(-c2ccc(CN3CCOCC3)cc2)c1 | < 4.30 | 6.24 | inactive | inactive | – | –
CC(C)c1ccc(NC(=O)c2cccc(-c3ccc(CN4CCOCC4)cc3)c2)cc1 | < 4.30 | < 6.00 | inactive | inactive | – | –
CCc1ccc(NC(=O)c2cccc(-c3ccc(CN4CCOCC4)cc3)c2)cc1 | < 4.30 | < 6.00 | inactive | inactive | – | –
CCc1ccc(-c2cccc3c2NC(=O)/C3=C\c2ccnc3ccccc23)cc1 | < 4.30 | < 6.00 | inactive | inactive | – | –
O=C(Nc1nccc2ccccc12)c1cccc(-c2ccc(CN3CCOCC3)cc2)n1 | < 4.30 | 6.61 | inactive | inactive | – | –
O=C1Nc2c(cccc2-c2ccc(Cl)cc2)/C1=C/c1ccnc2ccccc12 | < 4.30 | < 6.00 | inactive | inactive | – | –
CNC(=O)c1cccc(NC(=O)c2cccc(-c3ccc(CN4CCOCC4)cc3)c2)c1 | < 4.30 | < 6.00 | inactive | inactive | – | –
CC(C)c1cccc(NC(=O)c2cccc(-c3ccc(CN4CCOCC4)cc3)c2)c1 | < 4.30 | < 6.00 | inactive | inactive | – | –
COc1ccc(-c2cccc3c2NC(=O)/C3=C\c2ccnc3ccccc23)cc1 | < 4.30 | < 6.00 | inactive | inactive | – | –
CCc1ccccc1NC(=O)c1cccc(-c2ccc(CN3CCOCC3)cc2)c1 | < 4.30 | < 6.00 | inactive | inactive | – | –
NC(=O)c1ccc(NC(=O)c2cccc(-c3ccc(CN4CCOCC4)cc3)c2)cc1 | < 4.30 | < 6.00 | inactive | inactive | – | –
O=C(Nc1ccccc1F)c1cccc(-c2ccc(CN3CCOCC3)cc2)c1 | < 4.30 | < 6.00 | inactive | inactive | – | –
O=C(Nc1cccc(Cl)c1)c1cccc(-c2ccc(CN3CCOCC3)cc2)c1 | < 4.30 | 6.42 | – | – | 40.2% | 35.5%

Further lines, with some results ahead:

pIC50 (RAW264.7 [2]) | pIC50 (Dipeptidyl peptidase 1) | Compound | Activity (RAW264.7 [1]; time 25.0 hrs) | Activity (RAW264.7 [3]; time 25.0 hrs) | Activity (RAW264.7 [1]; time 25 hrs) | Activity (RAW264.7 [3]; time 25 hrs)
< 4.30 | < 6.00 | CC(C)c1ccccc1NC(=O)c1cccc(-c2ccc(CN3CCOCC3)cc2)c1 | inactive | inactive | – | –
< 4.30 | < 6.00 | Nc1cccc(NC(=O)c2cccc(-c3ccc(CN4CCOCC4)cc3)c2)c1 | inactive | inactive | – | –
< 4.30 | < 6.00 | O=C1Nc2c(cccc2-c2ccc(C(F)(F)F)cc2)/C1=C/c1ccnc2ccccc12 | inactive | inactive | – | –
4.69 | 6.53 | CC(=O)c1cccc(NC(=O)c2cccc(-c3ccc(CN4CCOCC4)cc3)c2)c1 | – | – | 47.4% | 50.3%
4.80 | 6.62 | O=C(Nc1ccc(O)cc1)c1cccc(-c2ccc(CN3CCOCC3)cc2)c1 | – | – | 38.6% | 40.8%
4.79 | 6.44 | NC(=O)c1cccc(NC(=O)c2cccc(-c3ccc(CN4CCOCC4)cc3)c2)c1 | – | – | 35.6% | 41.9%
4.95 | 6.27 | O=C1Nc2c(cccc2-c2ccc(N3CCOCC3)cc2)/C1=C/c1ccnc2ccccc12 | inactive | inactive | – | –
4.79 | 6.52 | CC(=O)Nc1ccc(-c2cccc3c2NC(=O)/C3=C\c2ccnc3ccccc23)cc1 | inactive | inactive | – | –
5.08 | 6.56 | Nc1c(C(=O)Nc2cccc3ccccc23)cccc1-c1ccc(CN2CCOCC2)cc1 | – | – | 67.1% | 40.1%
5.08 | 6.49 | Nc1c(C(=O)Nc2nccc3ccccc23)cccc1-c1ccc(CN2CCOCC2)cc1 | – | – | 44.2% | 33.3%
5.09 | 6.58 | O=C(Nc1cccc2ccccc12)c1cccc(-c2ccc(CN3CCOCC3)cc2)c1 | – | – | 63.2% | 54.3%
5.54 | 6.52 | O=C(Nc1ccc2ccccc2c1)c1cccc(-c2ccc(CN3CCOCC3)cc2)n1 | – | – | 69.3% | 57.4%
4.82 | < 6.00 | CN(C)c1ccc(-c2cccc3c2NC(=O)/C3=C\c2ccnc3ccccc23)cc1 | inactive | inactive | – | –
5.01 | – | O=C1Nc2c(cccc2-c2ccc3cc[nH]c3c2)/C1=C/c1ccnc2ccccc12 | – | – | 60.2% | 39.4%
5.19 | 6.84 | Nc1c(C(=O)Nc2ccnc3ccccc23)cccc1-c1ccc(CN2CCOCC2)cc1 | – | – | 80.9% | 75.2%
4.77 | 6.53 | CC(=O)c1ccc(-c2cccc3c2NC(=O)/C3=C\c2ccnc3ccccc23)cc1 | inactive | inactive | – | –
5.01 | 6.58 | O=C(Nc1cccc(O)c1)c1cccc(-c2ccc(CN3CCOCC3)cc2)c1 | – | – | 55.7% | 62.2%
4.79 | 6.54 | NC(=O)c1ccc(-c2cccc3c2NC(=O)/C3=C\c2ccnc3ccccc23)cc1 | inactive | inactive | – | –
5.17 | – | O=C1Nc2c(cccc2-c2ccc(C(=O)NC3CCOCC3)cc2)/C1=C/c1ccnc2ccccc12 | – | – | 88.1% | 71.9%
4.81 | 6.40 | Nc1n[nH]c2ccc(-c3cccc4c3NC(=O)/C4=C\c3ccnc4ccccc34)cc12 | – | – | 59.3% | 37.8%
5.07 | 6.74 | O=C1Nc2c(cccc2-c2ccc(C(=O)N3CCOCC3)cc2)/C1=C/c1ccnc2ccccc12 | – | – | 65.2% | 58.1%
4.84 | – | NCc1ccc(-c2cccc3c2NC(=O)/C3=C\c2ccnc3ccccc23)cc1 | inactive | inactive | – | –
